Experiment: xn = mol fraction of the nth substance listed
Settings: Liquid, Vibrating tube method

CC(C)=O [acetone] + CCCCCCC
Settings	mass density [kg/m3]
357.55 K, 24990 kPa, x1 = 0.4	726.84
357.55 K, 24990 kPa, x1 = 0.8992	726.84
357.55 K, 29870 kPa, x1 = 0.492	686.24
357.55 K, 29870 kPa, x1 = 0.611	695.58
357.55 K, 29970 kPa, x1 = 0.4	732.49
357.55 K, 29970 kPa, x1 = 0.8992	732.49
357.55 K, 34840 kPa, x1 = 0.492	691.34
357.55 K, 34860 kPa, x1 = 0.611	700.78
357.55 K, 34960 kPa, x1 = 0.4	737.79
357.55 K, 34960 kPa, x1 = 0.8992	737.79
357.55 K, 39860 kPa, x1 = 0.492	696.15
357.55 K, 39860 kPa, x1 = 0.611	705.69
357.55 K, 39960 kPa, x1 = 0.4	742.81
357.55 K, 39960 kPa, x1 = 0.8992	742.81
357.55 K, 44840 kPa, x1 = 0.492	700.71
357.55 K, 44850 kPa, x1 = 0.611	710.3
357.55 K, 44950 kPa, x1 = 0.4	747.57
357.55 K, 44950 kPa, x1 = 0.8992	747.57
357.55 K, 49840 kPa, x1 = 0.611	714.7
357.55 K, 49940 kPa, x1 = 0.4	752.09
357.55 K, 49940 kPa, x1 = 0.8992	752.09
357.55 K, 54850 kPa, x1 = 0.492	709.15
357.55 K, 54940 kPa, x1 = 0.4	756.43
357.55 K, 54940 kPa, x1 = 0.611	718.97
357.55 K, 54940 kPa, x1 = 0.8992	756.43
357.55 K, 59860 kPa, x1 = 0.492	713.06
357.55 K, 59930 kPa, x1 = 0.4	760.56
357.55 K, 59930 kPa, x1 = 0.611	722.96
357.55 K, 59930 kPa, x1 = 0.8992	760.56
357.55 K, 64830 kPa, x1 = 0.492	716.77
357.55 K, 64890 kPa, x1 = 0.4	764.53
357.55 K, 64890 kPa, x1 = 0.8992	764.53
357.55 K, 69890 kPa, x1 = 0.4	768.36
357.55 K, 69890 kPa, x1 = 0.8992	768.36
357.55 K, 69910 kPa, x1 = 0.611	730.41
357.55 K, 69930 kPa, x1 = 0.492	720.43
357.55 K, 74860 kPa, x1 = 0.4	772.01
357.55 K, 74860 kPa, x1 = 0.8992	772.01
357.55 K, 74890 kPa, x1 = 0.611	733.9
357.55 K, 74910 kPa, x1 = 0.492	723.89
357.55 K, 79780 kPa, x1 = 0.7024	747.09
357.55 K, 79880 kPa, x1 = 0.611	737.26
357.55 K, 84830 kPa, x1 = 0.4	778.99
357.55 K, 84830 kPa, x1 = 0.8992	778.99
357.55 K, 89740 kPa, x1 = 0.7024	753.59
357.55 K, 89810 kPa, x1 = 0.4	782.3
357.55 K, 89810 kPa, x1 = 0.8992	782.3
357.55 K, 89830 kPa, x1 = 0.611	743.64
357.55 K, 94820 kPa, x1 = 0.611	746.67
357.55 K, 94860 kPa, x1 = 0.492	736.47
357.55 K, 99800 kPa, x1 = 0.611	749.61
357.55 K, 99820 kPa, x1 = 0.7024	759.74
357.55 K, 104700 kPa, x1 = 0.4	791.65
357.55 K, 104700 kPa, x1 = 0.8992	791.65
357.55 K, 104820 kPa, x1 = 0.7024	762.65
357.55 K, 109810 kPa, x1 = 0.7024	765.49
357.55 K, 114810 kPa, x1 = 0.7024	768.22
357.55 K, 119810 kPa, x1 = 0.7024	770.9
357.55 K, 124810 kPa, x1 = 0.7024	773.52
357.55 K, 129800 kPa, x1 = 0.7024	776.06
357.56 K, 1060 kPa, x1 = 0.801	677.14
357.56 K, 4870 kPa, x1 = 0.801	683.82
357.56 K, 9840 kPa, x1 = 0.801	691.71
357.56 K, 14860 kPa, x1 = 0.801	698.89
357.56 K, 34850 kPa, x1 = 0.801	722.54
357.56 K, 49850 kPa, x1 = 0.492	705.01
357.56 K, 59820 kPa, x1 = 0.801	745.17
357.56 K, 64910 kPa, x1 = 0.611	726.75
357.56 K, 64920 kPa, x1 = 0.801	749.17
357.56 K, 69910 kPa, x1 = 0.801	752.93
357.56 K, 74880 kPa, x1 = 0.801	756.52
357.56 K, 79850 kPa, x1 = 0.4	775.55
357.56 K, 79850 kPa, x1 = 0.8992	775.55
357.56 K, 79900 kPa, x1 = 0.492	727.2
357.56 K, 84860 kPa, x1 = 0.611	740.5
357.56 K, 84870 kPa, x1 = 0.801	763.37
357.56 K, 84890 kPa, x1 = 0.492	730.4
357.56 K, 89840 kPa, x1 = 0.801	766.6
357.56 K, 89880 kPa, x1 = 0.492	733.49
357.56 K, 94780 kPa, x1 = 0.4	785.51
357.56 K, 94780 kPa, x1 = 0.8992	785.51
357.56 K, 94830 kPa, x1 = 0.801	769.76
357.56 K, 99750 kPa, x1 = 0.4	788.61
357.56 K, 99750 kPa, x1 = 0.8992	788.61
357.56 K, 99810 kPa, x1 = 0.801	772.8
357.56 K, 99830 kPa, x1 = 0.492	739.34
357.56 K, 104780 kPa, x1 = 0.611	752.46
357.56 K, 104780 kPa, x1 = 0.801	775.76
357.56 K, 104810 kPa, x1 = 0.492	742.14
357.56 K, 109680 kPa, x1 = 0.4	794.58
357.56 K, 109680 kPa, x1 = 0.8992	794.58
357.56 K, 109800 kPa, x1 = 0.492	744.86
357.56 K, 109860 kPa, x1 = 0.611	755.29
357.56 K, 114650 kPa, x1 = 0.4	797.46
357.56 K, 114650 kPa, x1 = 0.8992	797.46
357.56 K, 114760 kPa, x1 = 0.492	747.47
357.56 K, 114840 kPa, x1 = 0.801	781.49
357.56 K, 114860 kPa, x1 = 0.611	758
357.56 K, 119620 kPa, x1 = 0.4	800.25
357.56 K, 119620 kPa, x1 = 0.8992	800.25
357.56 K, 119840 kPa, x1 = 0.611	760.62
357.56 K, 119850 kPa, x1 = 0.492	750.09
357.56 K, 124590 kPa, x1 = 0.4	802.96
357.56 K, 124590 kPa, x1 = 0.8992	802.96
357.56 K, 124850 kPa, x1 = 0.492	752.62
357.56 K, 124850 kPa, x1 = 0.611	763.18
357.56 K, 124850 kPa, x1 = 0.801	786.88
357.56 K, 129540 kPa, x1 = 0.4	805.62
357.56 K, 129540 kPa, x1 = 0.8992	805.62
357.56 K, 129840 kPa, x1 = 0.492	755.04
357.56 K, 129850 kPa, x1 = 0.611	765.68
357.57 K, 19850 kPa, x1 = 0.801	705.47
357.57 K, 24850 kPa, x1 = 0.801	711.56
357.57 K, 29850 kPa, x1 = 0.801	717.2
357.57 K, 39860 kPa, x1 = 0.801	727.56
357.57 K, 44860 kPa, x1 = 0.801	732.3
357.57 K, 49830 kPa, x1 = 0.801	736.79
357.57 K, 54840 kPa, x1 = 0.801	741.09
357.57 K, 79870 kPa, x1 = 0.801	760
357.57 K, 109760 kPa, x1 = 0.801	778.61
357.57 K, 119850 kPa, x1 = 0.801	784.21
357.57 K, 129840 kPa, x1 = 0.801	789.47
367.47 K, 1110 kPa, x1 = 0.7024	653.24
367.47 K, 4830 kPa, x1 = 0.7024	660.5
367.47 K, 9820 kPa, x1 = 0.7024	669.16
367.47 K, 14810 kPa, x1 = 0.7024	676.86
367.47 K, 19800 kPa, x1 = 0.7024	683.87
367.47 K, 24870 kPa, x1 = 0.7024	690.44
367.47 K, 29900 kPa, x1 = 0.7024	696.42
367.47 K, 29980 kPa, x1 = 0.4	723.61
367.47 K, 29980 kPa, x1 = 0.8992	723.61
367.47 K, 34870 kPa, x1 = 0.7024	701.98
367.47 K, 39870 kPa, x1 = 0.7024	707.22
367.47 K, 44860 kPa, x1 = 0.7024	712.14
367.47 K, 49850 kPa, x1 = 0.7024	716.78
367.47 K, 54840 kPa, x1 = 0.7024	721.18
367.47 K, 59880 kPa, x1 = 0.4	753.02
367.47 K, 59880 kPa, x1 = 0.8992	753.02
367.47 K, 64830 kPa, x1 = 0.7024	729.41
367.47 K, 69810 kPa, x1 = 0.7024	733.25
367.47 K, 79780 kPa, x1 = 0.7024	740.5
367.47 K, 89740 kPa, x1 = 0.7024	747.21
367.47 K, 94830 kPa, x1 = 0.7024	750.48
367.47 K, 99830 kPa, x1 = 0.7024	753.58
367.47 K, 104830 kPa, x1 = 0.7024	756.58
367.47 K, 109810 kPa, x1 = 0.7024	759.49
367.47 K, 114820 kPa, x1 = 0.7024	762.32
367.47 K, 119810 kPa, x1 = 0.7024	765.08
367.47 K, 124820 kPa, x1 = 0.7024	767.78
367.47 K, 129810 kPa, x1 = 0.7024	770.39
367.48 K, 1150 kPa, x1 = 0.611	644.69
367.48 K, 5040 kPa, x1 = 0.4	687.92
367.48 K, 5040 kPa, x1 = 0.8992	687.92
367.48 K, 9850 kPa, x1 = 0.611	660.49
367.48 K, 10030 kPa, x1 = 0.4	696.45
367.48 K, 10030 kPa, x1 = 0.8992	696.45
367.48 K, 15010 kPa, x1 = 0.4	704.13
367.48 K, 15010 kPa, x1 = 0.8992	704.13
367.48 K, 19860 kPa, x1 = 0.611	675.16
367.48 K, 20000 kPa, x1 = 0.4	711.11
367.48 K, 20000 kPa, x1 = 0.8992	711.11
367.48 K, 24860 kPa, x1 = 0.611	681.55
367.48 K, 25000 kPa, x1 = 0.4	717.58
367.48 K, 25000 kPa, x1 = 0.8992	717.58
367.48 K, 29870 kPa, x1 = 0.611	687.49
367.48 K, 34860 kPa, x1 = 0.611	693
367.48 K, 39940 kPa, x1 = 0.4	734.49
367.48 K, 39940 kPa, x1 = 0.8992	734.49
367.48 K, 44850 kPa, x1 = 0.611	703
367.48 K, 44920 kPa, x1 = 0.4	739.45
367.48 K, 44920 kPa, x1 = 0.8992	739.45
367.48 K, 49910 kPa, x1 = 0.4	744.24
367.48 K, 49910 kPa, x1 = 0.8992	744.24
367.48 K, 49940 kPa, x1 = 0.611	707.7
367.48 K, 54900 kPa, x1 = 0.4	748.72
367.48 K, 54900 kPa, x1 = 0.8992	748.72
367.48 K, 54920 kPa, x1 = 0.611	712.06
367.48 K, 59830 kPa, x1 = 0.7024	725.38
367.48 K, 64860 kPa, x1 = 0.4	757.11
367.48 K, 64860 kPa, x1 = 0.8992	757.11
367.48 K, 64900 kPa, x1 = 0.611	720.16
367.48 K, 69840 kPa, x1 = 0.4	761.04

— the NIST ThermoML archive (doi:10.1016/j.fluid.2010.10.028)
